# Reference: ChEMBL document CHEMBL5543096 (J Med Chem, 2024)
# The source made the active and inactive calls. The calls are words filed in the database; no cut-off is given here.
# Key:
# Mus musculus [1] = assay: Antidepressant activity in chronic restraint stress-induced depressive C57BL/6J mouse model assessed as reduction in immobility time at 100 to 300 microg/kg,ip administrated on day 29 to 33 measured on day 35 by forced swimming test; type: functional, organism-based; conditions: dose 100-300 µg/kg, time 7.0 day
# [2] = AUC (0 to last) in Sprague-Dawley rat at 0.3 mg/kg,iv measured at 0.05 to 24 hrs of post administration by LC-MS/MS analysis; type: ADME, organism-based; conditions: in vivo, time 0.05-24 hrs
# [3] = AUC (0 to infinity) in Sprague-Dawley rat at 0.3 mg/kg,ip measured at 0.05 to 24 hrs of post administration by LC-MS/MS analysis; type: ADME, organism-based; conditions: in vivo, time 0.05-24 hrs
# [4] = Half life in Sprague-Dawley rat at 0.3 mg/kg,ip measured at 0.05 to 24 hrs of post administration by LC-MS/MS analysis; type: ADME, organism-based; conditions: in vivo, time 0.05-24 hrs
# Mus musculus [5] = assay: Antidepressant activity in Reserpine-induced depressive ICR mouse model assessed as decrease in immobility time at ip administrated on day 4 to 8 measured on day 10 by forced swimming test; type: functional, organism-based; conditions: time 7.0 day
# Mus musculus [6] = assay: Antidepressant activity in Reserpine-induced depressive ICR mouse model assessed as decrease in immobility time at 300 microg/kg,ip administrated on day 4 to 8 measured on day 11 by tail suspension test; type: functional, organism-based; conditions: dose 300.0 µg/kg, time 8.0 day
# [7] = Toxicity in chronic restraint stress-induced depressive C57BL/6J mouse model assessed as liver pathological change at 25 to 300 microg/kg,ip administrated on day 29 to 33 measured on day 36 by hematoxylin and eosin staining based microscopic analysis; type: tissue-based; conditions: in vivo, 192 h, dose 25-300 µg/kg, time 8 day
# [8] = Toxicity in chronic restraint stress-induced depressive C57BL/6J mouse model assessed as decrease in percentage of spontaneous alternation at 2 mg/kg,ip administration by Y-maze test; type: organism-based; conditions: in vivo
# [9] = Toxicity in chronic restraint stress-induced depressive C57BL/6J mouse model assessed as decrease in percentage of spontaneous alternation at 4 mg/kg,ip administration by Y-maze test; type: organism-based; conditions: in vivo
# [10] = Toxicity in chronic restraint stress-induced depressive C57BL/6J mouse model assessed as memory impairment at 4 mg/kg,ip administration and measured after 4 hrs by novel object recognition test; type: organism-based; conditions: in vivo
# Mus musculus [11] = assay: Antidepressant activity in chronic restraint stress-induced depressive C57BL/6J mouse model assessed as increase in hippocampal BDNF mRNA expression at 0.3 mg/kg,ip administration measured after 24 hrs by qRT-PCR analysis; type: functional, organism-based
# [12] = target: T1, Muscarinic acetylcholine receptor M1 (Homo sapiens, UniProt P11229); assay: Antagonist activity at human muscarinic M1 receptor expressed in CHO cells incubated for 10 mins in presence of acetylcholine by inositol 1-phosphate accumulation assay; type: functional, cell-based
# T1 sequence (P11229 whole entry): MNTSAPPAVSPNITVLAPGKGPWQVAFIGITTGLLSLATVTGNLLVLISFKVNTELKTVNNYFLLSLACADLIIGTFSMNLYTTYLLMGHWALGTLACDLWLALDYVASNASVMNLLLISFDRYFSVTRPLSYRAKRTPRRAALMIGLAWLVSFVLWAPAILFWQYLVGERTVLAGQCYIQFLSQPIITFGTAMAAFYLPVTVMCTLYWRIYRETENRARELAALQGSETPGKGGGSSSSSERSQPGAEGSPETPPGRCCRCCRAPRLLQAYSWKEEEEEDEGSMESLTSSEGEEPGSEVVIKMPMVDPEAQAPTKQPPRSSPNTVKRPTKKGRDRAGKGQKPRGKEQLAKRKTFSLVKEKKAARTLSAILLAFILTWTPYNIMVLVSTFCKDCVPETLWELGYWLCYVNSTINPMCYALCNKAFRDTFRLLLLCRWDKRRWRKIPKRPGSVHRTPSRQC
structure (smiles),measurement,setting,value
CN1[C@@H]2C[C@@H](OC(=O)[C@@](F)(CO)c3ccccc3)C[C@H]1[C@@H]1O[C@@H]12,Activity,Mus musculus [1],Active
same,AUC(0-t),[2],68.3 ng·h/mL
same,AUC(0-inf),[3],25.9 ng·h/mL
same,half-life,[4],16.6 min
same,Activity,Mus musculus [5],Dose-Dependent Effect
same,Activity,Mus musculus [6],Active
same,Activity,[7],Non-Toxic
same,Activity,[8],Non-Toxic
same,Activity,[9],Toxic
same,Activity,[10],Toxic
same,Activity,Mus musculus [11],inactive
same,IC50,[12],14.6 nM
